Data as given in US6821983B2, “5-(9-acridinylamino)-toluidine compounds” (Academia Sinica, priority 2003, dated 2004).
Where a name gives a salt, the structure may show the parent alone.

Legend:
human tumor cell lines = assay: Inhibition of human tumor cell growth in culture (XTT-tetrazolium cytotoxicity assay, 72 h); type: cell-based; details: five human tumor cell lines, 72 h incubation; for IC50 values compared with tested known 9-anilinoacridine antitumor compounds: for at least one cell line
Procedure: (§1) Cytotoxicity Assays. The effects of the compounds on cell growth were determined in all human tumor cells (i.e. colon HT-29, nasopharyngeal carcinoma HONE-1 and BM-1, hepatoma Hepa-G2, breast carcinoma MX-1, gastric carcinoma TSGH, brain tumor DBTRG, oral carcinoma KB, breast carcinoma MCF-7 and MX-1, and T-cell acute lymphocytic leukemia CCRF-CEM), in a 72 h incubation, by XTT-tetrazolium assay, as described by Scudiero et al. (Cancer Res. 1988, 48, 4827-4833). After the addition of phenazine methosulfate-XTT solution at 37° C. for 6 h, absorbance at 450 and 630 nm was detected on a microplate reader (EL 340; Bio-Tek Instruments Inc., Winooski, Vt.). Six to seven concentrations of each compound were used. The IC50 and dose-effect relationships of the compounds for antitumor activity were calculated by a median-effect plot (Chou et al. Adv. Enzyme Regul. 1984, 22, 27-55) using a computer program on an IBM-PC workstation (Chou et al. Dose-Effect Analysis with Microcomputers: Quantitation of ED50, LD50, Synergism, Antagonism, Low-Dose Risk, Receptor-Ligands Binding and Enzyme Kinetics; Biosoft: Cambridge, U.K., 1987).

[1] = test system: CCRF-CEM human lymphoblastic leukemic cells and its drug-resistant sublines; assay: Growth inhibition of CCRF-CEM cells and drug-resistant sublines (XTT-tetrazolium assay, 72 h); type: cell-based; details: for IC50 values compared with tested known 9-anilinoacridine compounds: CCRF-CEM and drug-resistant sublines, 72 h, as the trihydrochloride salt or free amine compounds; for cross-resistance with vinblastine or taxol: CCRF-CEM drug-resistant sublines
Procedure: as §1, with “in CCRF-CEM” for “in all”, “human lymphoblastic leukemic” for “human tumor”, “cells” for “cells (i.e. colon HT-29, nasopharyngeal carcinoma HONE-1”, “and its drug-resistant sublines” for “and BM-1, hepatoma Hepa-G2, breast carcinoma MX-1, gastric carcinoma TSGH, brain tumor DBTRG, oral carcinoma KB, breast carcinoma MCF-7 and MX-1, and T-cell acute lymphocytic leukemia CCRF-CEM),”

[2] = test system: human breast tumor MX-1 xenograft; assay: Chemotherapeutic efficacy in nude mice bearing human breast tumor MX-1 xenograft; type: in vivo; details: i.v., dosages of 10 mg/Kg or higher
Procedure: In vivo assay. Athymic nude mice bearing the nu/nu gene were used for human breast tumor MX-1 xenograft. Outbred Swiss-background mice were obtained from Charies River Breeding Laboratories. Male mice 8 weeks old or older weighing 22 g or more were used for most experiments. Drug was administrated via the tail vein by i.v. injection. Tumor volumes were assessed by measuring length x width x height (or width) by using caliper. Vehicle used was 20 μl DMSO in 180 μl saline. All animal studies were conducted in accordance with the guidelines of the National Institutes of Health Guide for the Care and Use of Animals and the protocol approved by the Memorial Sloan-Kettering Cancer Center's Institutional Animal Care and Use Committee.

Compound: Cc1ccc(Nc2c3cccc(C)c3nc3c(C(=O)NCCN(C)C)cccc23)cc1N (as salt: HCl) [Compound 3, 5-[9-(4-dimethylaminoethylcarboxamido-5-methyl)acridinylamino)-p-toluidine hydrochloride]
- melting point: 245 to 246 °C

Compound: Cc1cc(N)cc(Nc2c3ccccc3nc3ccccc23)c1 (as salt: HCl) [Compound 10, 5-(9-acridinylamino)-m-toluidine]
- melting point: > 280 °C (dec.)

Compound: Cc1cc(N)cc(Nc2c3cccc(C)c3nc3c(C(=O)NCCN(C)C)cccc23)c1 [Compound 1, 5-[9-(4-dimethylaminoethylcarboxamido-5-methyl)acridinylamino]-m-toluidine hydrochloride]
- IC50 values compared with tested known 9-anilinoacridine antitumor compounds (human tumor cell lines): lower than those of tested known 9-anilinoacridine antitumor compounds
- IC50 values compared with tested known 9-anilinoacridine compounds [1]: lower than tested known 9-anilinoacridine compounds
- cross-resistance with vinblastine or taxol [1]: not cross-resistant
- reducing tumor volume [2]: about 80%
- toxicity to the host [2]: very low toxicity

Compound: Cc1ccc(N)cc1Nc1c2cccc(C)c2nc2c(C(=O)NCCN(C)C)cccc12 [Compound 2, 3-[9-(4-dimethylaminoethylcarboxamido-5-methyl)acridinylamino)-p-toluidine hydrochloride]
- largest difference in IC50 versus one of the tested known compounds (human tumor cell lines): 18 fold
- IC50 values compared with tested known 9-anilinoacridine antitumor compounds (human tumor cell lines): lower than those of tested known 9-anilinoacridine antitumor compounds
- IC50 values compared with tested known 9-anilinoacridine compounds [1]: lower than tested known 9-anilinoacridine compounds
- cross-resistance with vinblastine or taxol [1]: not cross-resistant
- reducing tumor volume [2]: about 80%
- toxicity to the host [2]: very low toxicity

Compound: Cc1ccc(Nc2c3cccc(C)c3nc3c(C(=O)NCCN(C)C)cccc23)cc1N [Compound 3, 5-[9-(4-dimethylaminoethylcarboxamido-5-methyl)acridinylamino)-p-toluidine hydrochloride]
- IC50 values compared with tested known 9-anilinoacridine antitumor compounds (human tumor cell lines): lower than those of tested known 9-anilinoacridine antitumor compounds

Compound: CCOC(=O)Nc1cc(Nc2c3cccc(C)c3nc3c(C(=O)NCCN(C)C)cccc23)ccc1C [Compound 6]
- IC50 values compared with tested known 9-anilinoacridine antitumor compounds (human tumor cell lines): lower than those of tested known 9-anilinoacridine antitumor compounds
- melting point: 131 to 132 °C

Compound: {3-[4-(2-dimethylamino ethylcarbamoyl)-5-methyl-acridin-9-ylamino]-2-methyl-phenyl}-carbamic acid ethyl ester [Compound 5]
- IC50 values compared with tested known 9-anilinoacridine antitumor compounds (human tumor cell lines): lower than those of tested known 9-anilinoacridine antitumor compounds
